The test system of data set [1] is pulmonary fibrosis in response to bleomycin. Briefly: pulmonary fibrosis in the rat in response to bleomycin. Format: in vivo.
The test system of data set [2] is tumor grown in SCID mice. Briefly: apoptosis index in tumor grown in SCID mice (FIG. 19). The data set is classed as in vivo.
Data set [3] in a line: histology of tumor tissue and organs from SCID mice bearing A549 cell tumor (FIGS. 14-18). The data set is classed as in vivo.
Data set [4] deals with fibroblast. Particulars: Dahlberg et al. Am Rev. Respir. Dis. 143:A357, 1993; cited from earlier work.
Data set [5] relates to coagulation. Briefly: coagulation time (FIG. 13). Particulars: for coagulation time: FIG. 13.
Data set [6] deals with pulmonary artery smooth muscle cell. Particulars: in vivo, FIG. 4.
Data set [7] deals with pulmonary hypertension induced by hypoxia. The note with it: pig lung, FIG. 5.
For data set [8], the system named is bovine pulmonary artery smooth muscle cells. The note with it: in vitro, in comparison to non-acylated heparin fragments.
Data set [9] relates to fibroblast. Briefly: fibroblast proliferation. Format: cell-based. The note with it: unpublished data.
For data set [10], the system named is p27/KIP1. The note with it: A549 cell tumor tissue grown in SCID mice, dose dependent, FIG. 20.
For data set [11], the system named is E2F1. Description: expression of E2F1 protein in A549 cell tumor tissue (FIG. 22). The data set is classed as in vivo. The note with it: A549 cell tumor tissue grown in SCID mice, dose dependent.
The subject of data set [12] is HCT116 (colon cancer) cell tumor. Briefly: HCT116 cell tumor growth in SCID mice (FIGS. 11-12). The data set is classed as in vivo. Particulars: dose dependent.
In data set [13] the test system is A549 (non-small cell lung carcinoma) cell tumor. Briefly: A549 cell tumor growth in SCID mice (FIGS. 6-8). Particulars: dose dependent. The data set is classed as in vivo.
Data set [14] concerns coagulation. Briefly: anticoagulant property (no test named).
The test system of data set [15] is Rb. Description: expression of Rb gene product in A549 cell tumor tissue (FIG. 21). The data set is classed as in vivo. The note with it: A549 cell tumor tissue grown in SCID mice, dose dependent, lesser effect than on p27/KIP1, FIG. 21.
For data set [16], the system named is DMS79 (small cell lung carcinoma) cell tumor. Briefly: DMS79 cell tumor growth in SCID mice (FIGS. 9-10). Format: in vivo. Particulars: dose dependent.

These results are taken from US7538096B2, “Treatment and prevention of abnormal cellular proliferation” (The General Hospital Corporation, priority 2004, dated 2009).

Like-named read-outs stand apart in the source and are kept apart here.

For “heparin [Native heparin, reference compound]”, the pulmonary fibrosis result in [1] is “can inhibit”. For the same substance, the apoptosis index result in data set [2] was “significantly induces apoptosis”. In addition, in [3] (100 mg/kg, SCID mice, FIG. 14), the “hemorrhage in A549 cell tumor tissue (histology)” value is given as “Hemorrhage was detected”. For the same substance, the fibroblast proliferation entry in data set [4] is recorded as “can inhibit”. For the same substance, the coagulation time result in data set [5] was “increased”.
On to “O-Hexanoyl derivative of periodate-oxidized heparin fragments [hexanoylated heparin]”, for which the “pulmonary artery smooth muscle cell proliferation” value in [6] is reported as “significantly inhibited”. Moreover, the “development of pulmonary hypertension” value in [7] is on record as “significantly inhibited”. For the same substance, the antiproliferative effect result in data set [8] is given as “significantly enhanced”. Further, the fibroblast proliferation result in data set [9] was “can also inhibit”.
As for “O-butanoylated LMW Heparin [butanoylated heparin]”, the “expression of p27/KIP1 gene product” value in [10] was “significantly inhibited”. The “expression of E2F1 protein” value in data set [11] was “significantly inhibited”. Besides, the tumor growth result in [12] (FIG. 11), in data set [12] (FIG. 12), in [13] (FIG. 6) and in data set [16] (FIG. 9) was “significantly inhibited” in each case. In [9], the fibroblast proliferation entry is recorded as “can also inhibit”. For the same substance, the tumor weight entry in [13] (FIG. 7) and in data set [16] (FIG. 10) was “significantly decreased” each time. For the same substance, in data set [13] (FIG. 8), the “percent inhibition of tumor growth” value is “significantly inhibited”. Further, the anticoagulant property entry in data set [14] is on record as “virtually no”. Also, the apoptosis index result in [2] was “induction of apoptosis”. Further, the “toxic effect on heart, liver, kidney, and lung” value in [3] (animals tested, FIG. 15-18) is “no toxic effect”. Further, the “expression of Rb gene product” value in data set [15] was “decreased”. The coagulation time result in data set [5] is “no significant effect”. In [5] (compared to non-acylated controls, FIGS. 13 and 14), the anticoagulant effects entry is “very low”.
